# Columns and labels:
# [1] = Pharmacokinetic study, brain distribution test (TM in brain and whole blood); type: in vivo, SD rats; details: single gavage to rats
# Procedure: (§1) The SD rats used in this test were purchased from Zhejiang Charles rive Laboratory Animal Co., Ltd. Both male and female rats of SPF grade weighting about 250 g were used.
# (§2) Preparation of the test article: a proper amount of test article was weighed and ground as fine powder in a mortar. A certain amount of the vehicle was added to a proper container, and then the ground test article was added to the container under magnetic stirring. The mixture was stirred until the appearance is uniform.
# The male SD rats were divided into three groups (16 rats in each group) (4 animals were sacrificed at 4 time points). […] The animals were sacrificed at 5 min, 1 h, 3 h, and 9 h after the administration. The brain was taken out immediately after sacrifice, rinsed with ice-cold water and rinsed. 50 mg of the brain tissue was weighed, added to 0.45 mL of 100 mM dipotassium hydrogen phosphate buffer (pH=5.0) and homogenized. Blood samples were taken simultaneously and anticoagulated with EDTA. After collection, blood samples were placed on ice. 150 μL of whole blood was taken and 150 μL of 5.2% perchloric acid was added to determine TM. Another 4 animals were gavage administered with normal saline for the determination of endogenous TM concentration. All samples were frozen and stored in a −80° C. refrigerator.
# (§3) The concentrations of TM and TDP in the samples were determined by HPLC-FLD.
# (§4) The non-compartment model of the DAS software was used to calculate the pharmacokinetic parameters of TM and TDP in blood of rats after administration. The concentration of TM in the brain tissue after the drug administration in rats was measured, and the mean value and standard deviation were calculated. The area under the drug-time curve AUC was calculated using the trapezoidal method.
# [2] = Pharmacokinetic study, absorption test (TM and TDP in whole blood); type: in vivo, SD rats; details: same drug dose, single gavage, rats
# Procedure: as §1, §2
# The SD rats were divided into 3 groups (6 rats in each group, half male and half female). […] Blood was collected (about 200 µL/time) before drug administration (0 min) and 3 min, 8 min, 15 min, 30 min, 1 h, 2 h, 3 h, 5 h, 8 h, 12 h, 24 h and 48 h after drug administration. Blood was anticoagulated with EDTA and placed on ice after collection. […]
# as §3, §4
# [3] = tested on: scopolamine-induced acute memory dysfunction model; assay: Jumping stand test, scopolamine-induced acute memory dysfunction model; type: in vivo, ICR mice; details: scopolamine 2 mg/kg i.p., compound 200 mg/kg gavage once a day 3 weeks; for Number of errors: model group 1.7 ± 0.5; for Latency period: model group 68.5 ± 80.0
# Procedure: The mice employed in the present test were purchased from Xipuer-BIKAI Laboratory Animal Co., Ltd., and they were SPF grade ICR mice, 3-4 weeks old, weighing 16-18 g.
# Scopolamine hydrobromide trihydrate was purchased from aladdin, Product No.: S107418; Purity: 98%.
# Test article preparation: 100 mg of the compound to be tested was weighed and added to 10 mL of 0.7% CMC-Na to prepare a 10 mg/mL suspension for use.
# The laboratory mice were randomly divided into groups (9 or 10 mice per group). The mice in each group were administrated at a dosage of 0.2 mL/10 g body weight by oral gavage once a day for three weeks.
# The laboratory animals were administered by gavage for 3 consecutive weeks according to the above administration dosage/specification. Training was started on the last day of administration, and the test was conducted 24 hours later.
# The laboratory animals were administered by gavage for 3 weeks, and scopolamine (mouse: 2 mg/kg) was injected intraperitoneally 0.5 hour after the last dose. The animals were trained with YLS-3 TB jumping stand detector and tested for memory acquisition function after 24 hours. The latency period (the time from the start of counting to the first time of jumping off the stand) and the number of errors (the number of electric shock) were recorded.
# The YLS-3 TB jumping stand detector were divided into five compartments by transparent boards. The bottom of the compartment was covered with a copper grid and applied with a voltage of 50 V A rubber pad stand with a height of 3.5 cm and a diameter of 3.5 cm was placed in each compartment to serve as a safe area for mice to avoid electric shock. Training of laboratory mice before the formal test: the laboratory mice were placed in the small compartment with a stand to get familiar with the environment for 5 min (the five compartments were connected), and then electrified for stimulation (all the laboratory mice were on the grid at this time), at the voltage of 50 V and current of 1.00 mA. Mice have the habit of jumping from a high place. If they jump, they will be shocked to produce memory. The current was applied for 5 min, which served as the training process.
# Testing: the animals were put on the stand in the jumping compartment one by one. The time interval for putting each animal was 5 s. After the first animal was put on the stand, the electricity was applied immediately. The electricity was applied for 6 min. At the end of applying electricity, data were printed, and the latency period (the time from the start of counting to the first time of jumping off the stand) and the number of errors (the number of electric shock during the testing period) were recorded. […]
# [4] = Acute toxicity test, gavage to mice; type: in vivo, Kunming strain mice; details: male mice; for Body weight before administration (mean ± standard deviation): baseline before gavage 2000 mg/kg once a day; for Body weight on Day 7 (mean ± standard deviation) / Body weight on Day 14 (mean ± standard deviation): gavage 2000 mg/kg once a day
# Procedure: CMC-Na (sodium carboxymethylcellulose) was purchased from Shanghai Sinopharm Chemical Reagent Co., Ltd.
# The test animals were Kunming strain mice, 18-20 g, provided by Beijing Keao Xieli Feed Co., Ltd.
# • 1) Preparation of 0.7% CMC-Na: 0.7 g CMC-Na was added with distilled water to prepare a 0.7 g/100 mL solution. • 2) The compound to be tested was added to 0.7% CMC-Na to prepare a 100 mg/mL suspension. • 3) Each test group comprised 10 mice, all of which were male. Each mouse was orally administered with the test compound (2000 mg/kg) by gavage, once a day, for a cumulative period of 15 days. […] The body weights were recorded on the day of administration, days 7 and 14. 2.3. Test results
Structure (SMILES),"AUC of TM in the brain, times of that of BTMP administration group [1] [times]","AUC of TM in the brain, times of that of the Comparative compound 2 administration group [1] [times]","AUC of TM in the brain ([1]; trapezoidal method, calculated after deducting the concentration at time zero) [ng·h/g]",TM and TDP exposures compared with BTMP and Comparative compound 2 administration groups [2],t1/2 of TDP compared with BTMP or Comparative compound 2 administration group [2],Number of errors [3],Latency period [3] [s],Body weight before administration (mean ± standard deviation) [4] [g],Body weight on Day 7 (mean ± standard deviation) [4] [g],Body weight on Day 14 (mean ± standard deviation) [4] [g]
"CCCC(CCC)C(=O)S/C(CCOP(=O)(O)O)=C(/C)N(C=O)Cc1cnc(C)nc1N [Compound 1, (Z)—S-(2-(N-((4-amino-2-methylpyrimidin-5-yl)methyl)formamido)-5-(phosphonooxy)pent-2-en-3-yl) 2-propylpentanethioate]",1.56,2.08,1156.6,higher,significantly higher,0.8 ± 0.8,180.0 ± 105.9,31.4 ± 1.1,35.5 ± 1.0,36.7 ± 1.2
"CCC(CC)C(=O)S/C(CCOP(=O)(O)O)=C(/C)N(C=O)Cc1cnc(C)nc1N [Compound 2, (Z)—S-(2-(N-((4-amino-2-methylpyrimidin-5-yl)methyl)formamido)-5-(phosphonooxy)pent-2-en-3-yl) 2-ethylbutanethioate]",,,,,,0.9 ± 0.7,173.2 ± 98.7,,,
"C/C(=C(\CCOP(=O)(O)O)SC(=O)c1ccco1)N(C=O)Cc1cnc(C)nc1N [Compound 9, (Z)—S-(2-(N-((4-amino-2-methylpyrimidin-5-yl)methyl)formamido)-5-(phosphonooxy)pent-2-en-3-yl) furan-2-carbothioate]",,,,,,,,32.1 ± 1.7,35.7 ± 1.4,36.3 ± 1.7
